The numbers were not newly measured in patent US20060073200A1, “Lercanidipine capsules” (Recordati Ireland Limited, priority 2004, published 2006), which cites them from elsewhere.

Like-named read-outs stand apart in the source and are kept apart here.

Series [1] deals with cytochrome P450 IIIA4 isoenzyme (Homo sapiens, UniProt P08684). The settings on record: extensive presystemic first pass elimination.
Assay in series [2]: not given
This is another data set of the same source.

cytochrome P450 IIIA4 isoenzyme, sequence (P08684 whole entry): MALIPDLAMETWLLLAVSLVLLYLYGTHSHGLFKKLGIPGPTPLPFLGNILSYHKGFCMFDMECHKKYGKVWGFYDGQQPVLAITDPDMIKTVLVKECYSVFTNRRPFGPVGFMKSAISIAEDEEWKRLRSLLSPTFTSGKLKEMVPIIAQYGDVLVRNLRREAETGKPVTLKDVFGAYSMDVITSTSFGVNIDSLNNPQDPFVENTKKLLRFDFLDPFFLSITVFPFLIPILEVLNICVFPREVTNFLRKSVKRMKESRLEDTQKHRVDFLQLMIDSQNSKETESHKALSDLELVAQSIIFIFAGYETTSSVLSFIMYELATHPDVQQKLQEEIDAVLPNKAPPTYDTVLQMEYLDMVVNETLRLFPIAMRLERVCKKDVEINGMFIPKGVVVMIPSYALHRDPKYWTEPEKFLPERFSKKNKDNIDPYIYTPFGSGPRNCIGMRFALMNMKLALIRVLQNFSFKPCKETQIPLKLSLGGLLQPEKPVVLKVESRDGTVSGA

Consider `COC(=O)C1=C(C)NC(C)=C(C(=O)OC(C)(C)CN(C)CCC(c2ccccc2)c2ccccc2)C1c1cccc([N+](=O)[O-])c1` (centres unmarked) [Lercanidipine, methyl 1,1,N-trimethyl-N-(3,3-diphenylpropyl)-2-aminoethyl 1,4-dihydro-2,6-dimethyl-4-(3-nitrophenyl)pyridine-3,5-dicarboxylate], for which the solubility entry is “less than 20 μg/ml” (acidic media, at pH 5) and “less than 5 μg/ml” (pH greater than 5). In addition, the aqueous solubility result (water, lercanidipine and its salts) is recorded as “about 5 μg/ml”. In addition, in the series with Caco-2 cell apparatus, the Paap is 0.05 ×10⁻⁶ cm/s. Moreover, the “substrate for cytochrome P450 IIIA4 isoenzyme” value in series [1] was “substrate”. Moreover, the “increase in amount of lercanidipine absorbed with simultaneous intake of food” value in series [2] (food (especially high fat content) compared to administration without food) was “three to four fold”. The “plasma level of lercanidipine” value in series [2] (immediate release dosage forms, by 24 h) is recorded as “below 1 ng/ml”. Further, the “peak plasma level (Tmax)” value in series [2] (oral administration of an immediate release form) was 1 to 3 h.
